# Measured values: patent US12404289B2 (Gilead Sciences, Inc., priority 2020, dated 2025)
# System: Respiratory syncytial virus (RSV) strain A2
# Assay: Hep-2 RSV2 384-well assay (EC50-HEP2-384)
# Format: cell-based
# Settings: HEp-2 cells, RSV A2, MOI=4, 4 days, Table 3
row,Compound,EC50
1,"CCC(=O)O[C@H]1[C@@H](OC(=O)CC)[C@](C#N)(c2ccc3c(N)ncnn23)O[C@@H]1COP(=O)(N[C@@H](C)C(=O)OCCC(C)(C)CC)Oc1ccccc1 (stereo partly drawn) [Example 105b, (2R,3R,4R,5R)-2-(4-aminopyrrolo[2,1-f][1,2,4]triazin-7-yl)-2-cyano-5-((((((S)-1-((3,3-dimethylpentyl)oxy)-1-oxopropan-2-yl)amino)(phenoxy)phosphoryl)oxy)methyl)tetrahydrofuran-3,4-diyl Dipropionate]",60.7 nM
2,"CC(C)C(=O)O[C@H]1[C@@H](OC(=O)C(C)C)[C@](C#N)(c2ccc3c(N)ncnn23)O[C@@H]1COP(=O)(N[C@@H](C)C(=O)OC1CC2(CCCC2)C1)Oc1ccc(C(C)(C)C)cc1 (stereo partly drawn) [Example 100b, (2R,3R,4R,5R)-2-(4-aminopyrrolo[2,1-f][1,2,4]triazin-7-yl)-5-((((4-(tert-butyl)phenoxy)(((S)-1-oxo-1-(spiro[3.4]octan-2-yloxy)propan-2-yl)amino)phosphoryl)oxy)methyl)-2-cyanotetrahydrofuran-3,4-diyl bis(2-methylpropanoate)]",95.5 nM
3,"CCC(CC)COC(=O)[C@H](C)NP(=O)(OC[C@H]1O[C@@](C#N)(c2ccc3c(N)ncnn23)[C@H](O)[C@@H]1O)Oc1cccc2c1CCCC2 (single isomer, unassigned) [Example 136]",377 nM
4,"CCC(CC)COC(=O)[C@H](C)N[P@@](=O)(OC[C@H]1O[C@@](C#N)(c2ccc3c(N)ncnn23)[C@H](OC(C)=O)[C@@H]1OC(C)=O)Oc1cccc2c1CCCC2 [Example 147, (2R,3R,4R,5R)-2-(4-aminopyrrolo[2,1-f][1,2,4]triazin-7-yl)-2-cyano-5-((((R)—(((S)-1-(2-ethylbutoxy)-1-oxopropan-2-yl)amino)((5,6,7,8-tetrahydronaphthalen-1-yl)oxy)phosphoryl)oxy)methyl)tetrahydrofuran-3,4-diyl Diacetate]",334 nM
5,"C[C@H](NP(=O)(OC[C@H]1O[C@@](C#N)(c2ccc3c(N)ncnn23)[C@H](O)[C@@H]1O)Oc1ccc(C(C)(C)C)cc1)C(=O)OC1CCC1 (single isomer, unassigned) [Example 31b]",41.1 nM

# Same assay, conditions: human respiratory syncytial virus, HEp-2, 96 h, HEp-2 cells, RSV A2, MOI=4, 4 days, Table 3
row,Compound,EC50
1,"CCC(CC)COC(=O)[C@H](C)NP(=O)(OC[C@H]1O[C@@](C#N)(c2ccc3c(N)ncnn23)[C@H](OC(=O)C(C)C)[C@@H]1OC(=O)C(C)C)Oc1ccc(OC2CCCCC2)cc1 (stereo partly drawn) [Example 153, (2R,3R,4R,5R)-2-(4-aminopyrrolo[2,1-f][1,2,4]triazin-7-yl)-2-cyano-5-((((4-(cyclohexyloxy)phenoxy)(((S)-1-(2-ethylbutoxy)-1-oxopropan-2-yl)amino)phosphoryl)oxy)methyl)tetrahydrofuran-3,4-diyl bis(2-methylpropanoate)]",270 nM
2,"CC(=O)O[C@H]1[C@@H](OC(C)=O)[C@](C#N)(c2ccc3c(N)ncnn23)O[C@@H]1COP(=O)(N[C@@H](C)C(=O)O[C@H]1CCOC1)Oc1ccc(C(C)(C)C)cc1 (stereo partly drawn) [Example 35, (2R,3R,4R,5R)-2-(4-aminopyrrolo[2,1-f][1,2,4]triazin-7-yl)-5-((((4-(tert-butyl)phenoxy)(((S)-1-oxo-1-(((S)-tetrahydrofuran-3-yl)oxy)propan-2-yl)amino)phosphoryl)oxy)methyl)-2-cyanotetrahydrofuran-3,4-diyl Diacetate]",185 nM
3,"CC(C)C(=O)O[C@H]1[C@@H](OC(=O)C(C)C)[C@](C#N)(c2ccc3c(N)ncnn23)O[C@@H]1COP(=O)(N[C@@H](C)C(=O)OCc1ccccc1)Oc1ccc(C(C)(C)C)cc1 (stereo partly drawn) [Example 58, (2R,3R,4R,5R)-2-(4-aminopyrrolo[2,1-f][1,2,4]triazin-7-yl)-5-((((((S)-1-(benzyloxy)-1-oxopropan-2-yl)amino)(4-(tert-butyl)phenoxy)phosphoryl)oxy)methyl)-2-cyanotetrahydrofuran-3,4-diyl bis(2-methylpropanoate)]",71.5 nM
4,"CCC(C)(C)CCOC(=O)[C@H](C)NP(=O)(OC[C@H]1O[C@@](C#N)(c2ccc3c(N)ncnn23)[C@H](OC(=O)C(C)C)[C@@H]1OC(=O)C(C)C)Oc1ccc(C(C)(C)C)cc1 (stereo partly drawn) [Example 160, (2R,3R,4R,5R)-2-(4-aminopyrrolo[2,1-f][1,2,4]triazin-7-yl)-5-((((4-(tert-butyl)phenoxy)(((S)-1-((3,3-dimethylpentyl)oxy)-1-oxopropan-2-yl)amino)phosphoryl)oxy)methyl)-2-cyanotetrahydrofuran-3,4-diyl bis(2-methylpropanoate)]",219 nM
5,"CCC(CC)COC(=O)[C@H](C)NP(=O)(OC[C@H]1O[C@@](C#N)(c2ccc3c(N)ncnn23)[C@H](O)[C@@H]1O)Oc1ccc(OC2CCCCC2)cc1 (stereo partly drawn) [Example 140, 2-ethylbutyl ((((2R,3S,4R,5R)-5-(4-aminopyrrolo[2,1-f][1,2,4]triazin-7-yl)-5-cyano-3,4-dihydroxytetrahydrofuran-2-yl)methoxy)(4-(cyclohexyloxy)phenoxy)phosphoryl)-L-alaninate]",302 nM
6,"CCOC(=O)[C@H](C)NP(=O)(OC[C@H]1O[C@@](C#N)(c2ccc3c(N)ncnn23)[C@H](OC(=O)CC(C)C)[C@@H]1OC(=O)CC(C)C)Oc1ccc(C(C)(C)C)cc1 (stereo partly drawn) [Example 158, (2R,3R,4R,5R)-2-(4-aminopyrrolo[2,1-f][1,2,4]triazin-7-yl)-5-((((4-(tert-butyl)phenoxy)(((S)-1-ethoxy-1-oxopropan-2-yl)amino)phosphoryl)oxy)methyl)-2-cyanotetrahydrofuran-3,4-diyl bis(3-methylbutanoate)]",272 nM
7,"COCCOC(=O)[C@H](C)NP(=O)(OC[C@H]1O[C@@](C#N)(c2ccc3c(N)ncnn23)[C@H](OC(=O)C(C)C)[C@@H]1OC(=O)C(C)C)Oc1ccc(C(C)(C)C)cc1 (stereo partly drawn) [Example 151, (2R,3R,4R,5R)-2-(4-aminopyrrolo[2,1-f][1,2,4]triazin-7-yl)-5-((((4-(tert-butyl)phenoxy)(((S)-1-(2-methoxyethoxy)-1-oxopropan-2-yl)amino)phosphoryl)oxy)methyl)-2-cyanotetrahydrofuran-3,4-diyl bis(2-methylpropanoate)]",55.6 nM
8,"CC(C)C(=O)O[C@H]1[C@@H](OC(=O)C(C)C)[C@](C#N)(c2ccc3c(N)ncnn23)O[C@@H]1COP(=O)(N[C@@H](C)C(=O)OC1CCCCC1)Oc1ccc(C(C)(C)C)cc1 (stereo partly drawn) [Example 149, (2R,3R,4R,5R)-2-(4-aminopyrrolo[2,1-f][1,2,4]triazin-7-yl)-5-((((4-(tert-butyl)phenoxy)(((S)-1-(cyclohexyloxy)-1-oxopropan-2-yl)amino)phosphoryl)oxy)methyl)-2-cyanotetrahydrofuran-3,4-diyl bis(2-methylpropanoate)]",99.4 nM
9,"CC(=O)O[C@H]1[C@@H](OC(C)=O)[C@](C#N)(c2ccc3c(N)ncnn23)O[C@@H]1COP(=O)(N[C@@H](C)C(=O)OC1CCCCC1)Oc1ccc(C(C)(C)C)cc1 (stereo partly drawn) [Example 148, (2R,3R,4R,5R)-2-(4-aminopyrrolo[2,1-f][1,2,4]triazin-7-yl)-5-((((4-(tert-butyl)phenoxy)(((S)-1-(cyclohexyloxy)-1-oxopropan-2-yl)amino)phosphoryl)oxy)methyl)-2-cyanotetrahydrofuran-3,4-diyl Diacetate]",59.3 nM
10,"CC(C)COC(=O)[C@H](C)NP(=O)(OC[C@H]1O[C@@](C#N)(c2ccc3c(N)ncnn23)[C@H](OC(=O)CC(C)C)[C@@H]1OC(=O)CC(C)C)Oc1ccc(C(C)(C)C)cc1 (stereo partly drawn) [Example 139, (2R,3R,4R,5R)-2-(4-aminopyrrolo[2,1-f][1,2,4]triazin-7-yl)-5-((((4-(tert-butyl)phenoxy)(((S)-1-isobutoxy-1-oxopropan-2-yl)amino)phosphoryl)oxy)methyl)-2-cyanotetrahydrofuran-3,4-diyl bis(3-methylbutanoate)]",194 nM
11,"COC(C)(C)COC(=O)[C@H](C)NP(=O)(OC[C@H]1O[C@@](C#N)(c2ccc3c(N)ncnn23)[C@H](OC(C)=O)[C@@H]1OC(C)=O)Oc1ccc(C(C)(C)C)cc1 (stereo partly drawn) [Example 131, (2R,3R,4R,5R)-2-(4-aminopyrrolo[2,1-f][1,2,4]triazin-7-yl)-5-((((4-(tert-butyl)phenoxy)(((S)-1-(2-methoxy-2-methylpropoxy)-1-oxopropan-2-yl)amino)phosphoryl)oxy)methyl)-2-cyanotetrahydrofuran-3,4-diyl Diacetate]",56.2 nM
12,"C[C@H](NP(=O)(OC[C@H]1O[C@@](C#N)(c2ccc3c(N)ncnn23)[C@H](O)[C@@H]1O)Oc1ccc(C(C)(C)C)cc1)C(=O)OC1CCCCC1 (stereo partly drawn) [Example 142, cyclohexyl ((((2R,3S,4R,5R)-5-(4-aminopyrrolo[2,1-f][1,2,4]triazin-7-yl)-5-cyano-3,4-dihydroxytetrahydrofuran-2-yl)methoxy)(4-(tert-butyl)phenoxy)phosphoryl)-L-alaninate]",73.5 nM
13,"COC(C)COC(=O)[C@H](C)NP(=O)(OC[C@H]1O[C@@](C#N)(c2ccc3c(N)ncnn23)[C@H](OC(=O)C(C)C)[C@@H]1OC(=O)C(C)C)Oc1ccc(C(C)(C)C)cc1 (stereo partly drawn) [Example 162, (2R,3R,4R,5R)-2-(4-aminopyrrolo[2,1-f][1,2,4]triazin-7-yl)-5-((((4-(tert-butyl)phenoxy)(((2S)-1-(2-methoxypropoxy)-1-oxopropan-2-yl)amino)phosphoryl)oxy)methyl)-2-cyanotetrahydrofuran-3,4-diyl bis(2-methylpropanoate)]",72.5 nM
14,"COC(C)COC(=O)[C@H](C)NP(=O)(OC[C@H]1O[C@@](C#N)(c2ccc3c(N)ncnn23)[C@H](O)[C@@H]1O)Oc1ccc(C(C)(C)C)cc1 (stereo partly drawn) [Example 155, 2-methoxypropyl ((((2R,3S,4R,5R)-5-(4-aminopyrrolo[2,1-f][1,2,4]triazin-7-yl)-5-cyano-3,4-dihydroxytetrahydrofuran-2-yl)methoxy)(4-(tert-butyl)phenoxy)phosphoryl)-L-alaninate]",683 nM
15,"CCC(CC)COC(=O)[C@H](C)NP(=O)(OC[C@H]1O[C@@](C#N)(c2ccc3c(N)ncnn23)[C@H](O)[C@@H]1O)Oc1ccc2c(c1)CCCC2 (stereo partly drawn) [Example 129, 2-ethylbutyl ((((2R,3S,4R,5R)-5-(4-aminopyrrolo[2,1-f][1,2,4]triazin-7-yl)-5-cyano-3,4-dihydroxytetrahydrofuran-2-yl)methoxy)((5,6,7,8-tetrahydronaphthalen-2-yl)oxy)phosphoryl)-L-alaninate]",362 nM
